Counter-ions that a name gives are not always drawn.
Target: T1, CCR-3 receptor (Homo sapiens, UniProt P51677)
T1 construct: expressed in transfected cells; host or cells: L1.2 cells (murine pre-B lymphoma line)
T1 sequence (P51677 1-355): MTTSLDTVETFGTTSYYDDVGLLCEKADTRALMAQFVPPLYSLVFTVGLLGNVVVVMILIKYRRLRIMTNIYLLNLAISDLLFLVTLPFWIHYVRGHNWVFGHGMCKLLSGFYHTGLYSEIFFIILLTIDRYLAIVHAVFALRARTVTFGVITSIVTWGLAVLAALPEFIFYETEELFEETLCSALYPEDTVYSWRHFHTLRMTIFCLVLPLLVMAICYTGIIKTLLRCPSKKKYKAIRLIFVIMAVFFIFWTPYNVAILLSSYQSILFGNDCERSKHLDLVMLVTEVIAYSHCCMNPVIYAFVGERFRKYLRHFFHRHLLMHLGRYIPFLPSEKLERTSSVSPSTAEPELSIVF
Assay: CCR-3 Receptor Binding Assay, inhibition of 125I eotaxin binding to CCR-3 L1.2 transfectant cells
Details: concentration required to reduce 125I-eotaxin binding to the CCR-3 L1.2 transfected cells by 50%
Procedure: The CCR-3 antagonistic activity of the compounds of the invention was determined by their ability to inhibit the binding of ^125I eotaxin to CCR-3 L1.2 transfectant cells ((see Ponath, P. D. et al., J. Exp. Med., Vol. 183, 2437-2448, (1996)).
The assay was performed in Costar 96-well polypropylene round bottom plates. Test compounds were dissolved in DMSO and then diluted with binding buffer (50 mM HEPES, 1 mM CaCl2, 5 mM MgCl2, 0.5% bovine serum albumin (BSA), 0.02% sodium azide, pH 7.24) such that the final DMSO concentration was 2%. 25 μl of the test solution or only buffer with DMSO (control samples) was added to each well, followed by the addition of 25 μl of ^125I-eotaxin ([…]) (NEX314, New England Nuclear, Boston, Mass.) and 1.5×10^5 of the CCR-3 L1.2 transfected cells in 25 μl binding buffer. The final reaction volume was 75 μl.
After incubating the reaction mixture for 1 h at room temperature, the reaction was terminated by filtering the reaction mixture through polyethylenimine treated Packard Unifilter GF/C filter plate (Packard, Chicago, Ill.). The filters were washed four times with ice cold wash buffer containing 10 mm HEPES and 0.5M sodium chloride (pH 7.2) and dried at 65° C. for approximately 10 min. 25 μl/well of Microscint-20™ scintillation fluid (Packard) was added and the radioactivity retained on the filters was determined by using the Packard TopCount™.
The IC50 value (concentration of test compound required to reduce ^125I-eotaxin binding to the CCR-3 L1.2 transfected cells by 50%) for some of the compounds of the invention was: […]

Row | Compound | IC50
1 | 1-{1(RS)-[4-(4-Chlorobenzyl)piperazin-1-yl]-2-methylpropyl}-3-(3-methylphenyl)-2-thiourea [compound 107] | 1140 nM
2 | CC(C)C(CN1CCN(Cc2ccc(Cl)c(Cl)c2)CC1)NC(=O)c1ccccn1.Cl.Cl (racemic) [compound 7, N-{1(RS)-[4-(3,4-Dichlorobenzyl)piperazin-1-ylmethyl]-2-methylpropyl}picolinamide dihydrochloride salt] | 415 nM
3 | CC(C)C(CN1CCN(Cc2ccc(Cl)c(Cl)c2)CC1)NC(=O)Cc1cccs1 (racemic) [compound 25, N-{1(RS)-[4-(3,4-Dichlorobenzyl)piperazin-1-ylmethyl]-2-methylpropyl}-2-(thiophene-2-yl)acetamide] | 1460 nM
4 | CC(C)C(CN1CCN(Cc2ccc(Cl)cc2)CC1)NS(=O)(=O)c1ccc(Cl)cc1 (racemic) [compound 118] | 1500 nM
5 | CC(C)C(CN1CCN(Cc2ccc(Cl)c(Cl)c2)CC1)NS(=O)(=O)c1ccc(F)cc1 (stereo in doubt) [compound 117, N-{1(R)-[4-(3,4-Dichlorobenzyl)piperazin-1-ylmethyl]-2-methylpropyl}-4-flourobenzenesulfonamide] | 1330 nM
6 | CC(C)[C@@H](CN1CCN(Cc2ccc(Cl)c(Cl)c2)CC1)NC(=O)c1ccc2ccccc2c1 [compound 19, N-{1(S)-[4-(3,4-Dichlorobenzyl)piperazin-1-ylmethyl]-2-methylpropyl}-2-naphthaleneamide] | 945 nM
7 | CC(C)C(CN1CCN(Cc2ccc(Cl)c(Cl)c2)CC1)NC(=O)c1ccncc1 (stereo not shown) [compound 20] | 952 nM
8 | CC(C)C(CN1CCN(Cc2ccc(Cl)c(Cl)c2)CC1)NC(=O)c1ccc2ccccc2n1 (stereo not shown) [compound 24] | 1370 nM
9 | CC(C)C(CN1CCN(Cc2ccc(Cl)cc2)CC1)NC(=O)Nc1ccccc1 (stereo not shown) [compound 89] | 1680 nM
10 | CC(C)C(CN1CCN(Cc2ccc(Cl)cc2)CC1)NC(=S)Nc1cccc2ccccc12 (stereo not shown) [compound 109] | 2840 nM
11 | COc1ccccc1NC(=S)NC(CN1CCN(Cc2ccc(Cl)c(Cl)c2)CC1)C(C)C (stereo not shown) [compound 110] | 3050 nM
12 | CC(C)C(CN1CCN(Cc2ccc(Cl)cc2)CC1)NS(=O)(=O)c1ccc(C(F)(F)F)cc1 (stereo not shown) [compound 121] | 3520 nM

Next, values leading:

Row | IC50 | Compound
13 | 240 nM | Cc1ccc(C(=O)N[C@H](CN2CCN(Cc3ccc(Cl)c(Cl)c3)CC2)C(C)C)cc1 [compound 8, N-{1(S)-[4-(3,4-Dichlorobenzyl)piperazin-1-ylmethyl]-2-methylpropyl}-4-methylbenzamide dihydrochloride salt]
14 | 1330 nM | CCCC(CN1CCN(Cc2ccc(Cl)c(Cl)c2)CC1)NC(=O)c1ccc(C)cc1 (stereo not shown) [compound 23]
15 | 1760 nM | CC(C)(C)[C@@H](CN1CCC(Cc2ccc(Cl)c(Cl)c2)CC1)NC(=O)c1ccc(Cl)cc1 [compound 61]
16 | 5030 nM | Cc1ccc(C(=O)N2CCC[C@@H]2CN2CCN(Cc3ccc(Cl)c(Cl)c3)CC2)cc1 [compound 78, {1-(4-Methylbenzoyl)-2(R)-[4-(3,4-dichlorobenzyl)piperazin-1-ylmethyl]}pyrrolidine Dihydrochloride Salt]
17 | 1160 nM | CCOc1ccccc1NC(=O)NC(CN1CCN(Cc2ccc(Cl)c(Cl)c2)CC1)C(C)C (stereo not shown) [compound 86]
18 | 1470 nM | CC(C)C(CN1CCN(Cc2ccc(Cl)c(Cl)c2)CC1)NC(=O)Nc1cccc(Br)c1 (stereo not shown) [compound 88]
19 | 1890 nM | CC(=O)c1cccc(NC(=O)NC(CN2CCN(Cc3ccc(Cl)c(Cl)c3)CC2)C(C)C)c1 (stereo not shown) [compound 91]
20 | 2360 nM | COc1cccc(NC(=O)N[C@H](CN2CCC(Cc3ccc(Cl)c(Cl)c3)CC2)C(C)(C)C)c1 [compound 99]
21 | 2470 nM | Cc1ccc(NC(=O)N[C@H](CN2CCC(Cc3ccc(Cl)c(Cl)c3)CC2)C(C)(C)C)cc1 [compound 100]

System: not given
Assay: not given
Details: not given

Row | Compound | melting point
22 | CC(C)C(CN1CCN(Cc2ccc(Cl)c(Cl)c2)CC1)NC(=O)c1ccncc1 (stereo not shown) (as salt: HCl) [compound 20] | 150 to 153 °C
23 | CC(C)C(CN1CCN(Cc2ccc(Cl)c(Cl)c2)CC1)NC(=O)c1ccccn1.Cl.Cl (racemic) [compound 7, N-{1(RS)-[4-(3,4-Dichlorobenzyl)piperazin-1-ylmethyl]-2-methylpropyl}picolinamide dihydrochloride salt] | 226.2 to 229.9 °C
24 | O=C(N[C@@H](CN1CCN(Cc2ccc(Cl)c(Cl)c2)CC1)C1CCCCC1)c1ccc(Cl)cc1 [compound 35, N-{1(R)-cyclohexyl-2-[4-(3,4-dichlorobenzyl)piperazin-1-yl]ethyl}-4-chloro-benzamide] | 149 to 155 °C

Continued, values first:

Row | melting point | Compound
25 | 238 to 242 °C | Cc1ccc(C(=O)N[C@H](CN2CCN(Cc3ccc(Cl)c(Cl)c3)CC2)C(C)(C)C)cc1.Cl.Cl
26 | 222.5 to 223 °C | COc1ccc(C(=O)N[C@H](CN2CCN(Cc3ccc(Cl)c(Cl)c3)CC2)C(C)C)cc1.Cl.Cl
27 | 229 to 229.6 °C | Cc1ccc(C(=O)N[C@H](CN2CCN(Cc3ccc(Cl)c(Cl)c3)CC2)C(C)C)cc1 (as salt: HCl) [compound 8, N-{1(S)-[4-(3,4-Dichlorobenzyl)piperazin-1-ylmethyl]-2-methylpropyl}-4-methylbenzamide dihydrochloride salt]
28 | 199.5 to 203.5 °C | CCCC(CN1CCN(Cc2ccc(Cl)c(Cl)c2)CC1)NC(=O)c1ccc(C)cc1 (stereo not shown) (as salt: HCl) [compound 23]
29 | 87 to 90 °C | Cc1ccc(C(=O)N[C@H](CN2CCC(Cc3ccc(Cl)c(Cl)c3)CC2)C(C)C)cc1 (as salt: HCl) [compound 57, N-{1-(S)-[4-(3,4-Dichlorobenzyl)piperidin-1-ylmethyl]-2-methylpropyl}-4-methylbenzamide]
30 | 45 to 47.5 °C | Cc1ccc(C(=O)N[C@H](CN2CCC(Cc3ccc(Cl)c(Cl)c3)CC2)C(C)C)s1 (as salt: HCl) [compound 71, N-{1-(R)-[4-(Dichlorobenzyl)piperidin-1-ylmethyl]-2-methylpropyl}-5-methylthiophene-2-carboxamide Hydrochloride Salt]
31 | 249.6 to 250.1 °C | Cc1ccc(C(=O)N2CCC[C@@H]2CN2CCN(Cc3ccc(Cl)c(Cl)c3)CC2)cc1 (as salt: HCl) [compound 78, {1-(4-Methylbenzoyl)-2(R)-[4-(3,4-dichlorobenzyl)piperazin-1-ylmethyl]}pyrrolidine Dihydrochloride Salt]
32 | 97.5 to 99.5 °C | COc1cccc(NC(=O)N[C@H](CN2CCN(Cc3ccc(Cl)c(Cl)c3)CC2)C(C)C)c1 (as salt: HCl) [compound 98, 1-{1(S)-[4-(3,4-Dichlorobenzyl)piperazin-1-ylmethyl]-2-methylpropyl}-3-(3-methoxyphenyl)urea]
33 | 109.5 to 111 °C | Cc1ccc(NC(=O)N[C@H](CN2CCC(Cc3ccc(Cl)c(Cl)c3)CC2)C(C)(C)C)cc1 (as salt: HCl) [compound 100]
34 | 233.9 to 235.5 °C | Cc1ccc(C(=O)NC(CC2CCN(Cc3ccc(Cl)c(Cl)c3)CC2)C(C)C)cc1 (racemic) (as salt: hydrochloride) [compound 133]
35 | 161.4 to 161.8 °C | COc1cccc(NC(=O)NC(C(C)C)C2CCN(Cc3ccc(Cl)c(Cl)c3)CC2)c1 (racemic) [compound 132, 1-{1(RS)-[1-(3,4-Dichlorobenzyl)piperidin-4-yl]-2-methylpropyl}-3-(3-methoxyphenyl)urea]
36 | 63 to 68 °C | CC(C)(C)[C@@H](CN1CCC(Cc2ccc(Cl)c(Cl)c2)CC1)NC(=O)c1ccc(Cl)cc1 [compound 61]
37 | 75.1 to 80.3 °C | COc1cccc(NC(=O)N[C@H](CN2CCC(Cc3ccc(Cl)c(Cl)c3)CC2)C(C)(C)C)c1 [compound 99]

Source: patent US6770650B2, “Cyclic amine derivatives-CCR-3 receptor antagonists” (Syntex (U.S.A.) LLC, priority 1997, dated 2004)
